Data as given in patent publication US20250009765A1, “COMPOSITIONS AND METHODS FOR REDUCING SLEEP DI[…] TREATING SLEEP DISORDERS” (FloraScience Inc., priority 2023, published 2025).

Assays:
Assay type in all cases: in vivo, human
sleep disturbance [1] = assay: PROMIS Sleep Disturbance 8A survey, randomized blinded placebo-controlled study; details: for Relative Risk for meaningful clinical improvement on the PROMIS Sleep Disturbance 8A / Estimated marginal percentage achieving meaningful clinical improvement on the PROMIS Sleep 8A: 95% CI in parentheses; for Observed % Achieving Meaningful Clinical Improvement on the PROMIS Sleep 8A: 30% or greater reduction from baseline; for % experiencing MCID in PROMIS Sleep Disturbance 8A score: MCID = score reduction of one half the standard deviation of the baseline score; for Estimated marginal percentage achieving meaningful clinical improvement on the PROMIS Sleep 8A: improvement = 30% or greater reduction from baseline; for Parameter Estimate for PROMIS Sleep Disturbances 8a, Treatment: reference placebo, linear mixed-effects model
Method: (§1) The primary aim of this study was to assess the effects of three different formulations of TruCBN softgels and a formulation of 4 mg melatonin on sleep quality, relative to placebo control. There were 5 arms within the study; (1) 4 mg melatonin, (2) 25 mg CBN, (3) 50 mg CBN, (4) 100 mg CBN, and (5) placebo (see Table 1 for further details on study arm formulations). All study arms provided the test article as a softgel. Participants were instructed to take 1 softgel 1-2 hours before bed. To ensure that results were not biased, participants were randomly assigned to product, were blinded to the contents, and were not told what they were taking until the conclusion of the study. The secondary aim of the study was to assess the tolerability of the three formulations of TruCBN softgels and 4 mg melatonin, relative to placebo.
(§2) Study participants were at least 21 years old, endorsed a desire for better sleep quality, and expressed interest in taking a cannabinoid product to improve their sleep. The study was entirely virtual; participants were recruited through online recruitment channels, study product was delivered directly to participants' homes, and all data were collected via online surveys delivered to their mobile device or computer. There were four phases of the study (see FIG. 1 for study timeline): (1) Recruitment and Randomization, (2) Baseline (1 week), (3) Study period (2-5 weeks), and (4) Conclusion.
PROMIS™ Sleep Disturbance 8A: An 8-question survey, with severity thresholds based on T-scores not raw scores. The severity scores are established as follows: • “None to slight”=Less than 55 • “Mild”=55.0-59.9 • “Moderate”=60.0-69.9 • “Severe”=70 and up
The range of raw scores were from 8 to 40, with higher scores translating to greater sleep disturbance (i.e., worse sleep quality). PROMIS™ Sleep Disturbance 8A threshold for minimally important difference: One-half the standard deviation of the baseline score (Purvis, Taylor E. et al., SPINE, 2018, 43(21):1512-1520).
(§3) After receiving study product, each participant was instructed to take 1 softgel each day orally 1-2 hours before bed and complete weekly health and product use surveys. This phase of the study lasted about 4 weeks.
(§4) For precision, adjustments were made for sex, age, race, ethnicity, and body mass index (BMI) in every model. […] Analysis was conducted using Stata 17 and R. An intent-to-treat analysis was run, meaning that all participants who were assigned product (aside from the aforementioned exclusions) were included in the analysis according to their product assignment, regardless of product adherence or study attrition. Visuals of the predicted marginal means of health scores, rather than the raw mean scores, were prepared. Predicted marginal means were calculated from the statistical models and better represent the true differences between arms adjusting for any potential imbalances across arms. A finding that was “significant” means that the likelihood of falsely rejecting the null hypothesis that there were no differences between groups was very small (less than 5%; i.e., the p-value was less than 0.05). In other words, when certain findings were said to be “significant” they are not considered the result of random variation.

sleep disturbance [2] = assay: PROMIS Sleep Disturbance SF4A survey, randomized blinded placebo-controlled study; details: for Relative Risk for meaningful clinical improvement on the PROMIS Sleep SF4A / Estimated marginal percentage achieving meaningful clinical improvement on the PROMIS Sleep SF4A: 95% CI in parentheses; for Observed % Achieving Meaningful Clinical Improvement on the PROMIS Sleep SF4A: 30% or greater reduction from baseline; for Estimated marginal percentage achieving meaningful clinical improvement on the PROMIS Sleep SF4A: improvement = 30% or greater reduction from baseline
Method: as §1, §2
The PROMIS™ Sleep Disturbance SF4A threshold for minimally important difference: One-half the standard deviation of the baseline score (Norman, G. R. et al., Med. Care, 2003, 41:582-592).
as §3, §4

sleep disturbance [3] = assay: Participant global impression of change (PGIC) in sleep disturbance; details: for Odds Ratio (95% Confidence interval), sleep disturbance PGIC: Dunnett correction; for Parameter estimate for PGIC in sleep disturbance: treatment reference placebo, log-odds scale
Method: as §1
Participants received a final study survey asking about their overall experiences and impressions. Afterwards they also receive a Report containing their individualized data.
as §4

[4] = Average time to effect reported by participants; details: oral
Method: as §3
Participants reported experiencing an effect between 46 and 55 minutes after taking their study product.

[5] = Tolerability: side effects reported by participants
Method: as §1, §3
The side effects for all study arms were similar in frequency and mostly mild; none were considered serious or required use of emergency or non-emergency healthcare services. The most commonly reported side effect was grogginess or drowsiness (see FIG. 7). Additional side effects reported by some participants included: chest pain, constipation, urinary tract infection, tingling in lips, dry mouth, weight gain, dry or itchy eyes, low libido, rash, and brain fog.

CCCCCc1cc(O)c2c(c1)OC(C)(C)c1ccc(C)cc1-2 [CBN, 6,6,9-trimethyl-3-pentyl-benzo[c]chromen-1-ol]
Relative Risk for meaningful clinical improvement on the PROMIS Sleep Disturbance 8A (sleep disturbance [1]; 25 mg CBN − placebo): 1.33 (0.65, 2.01) | Observed % Achieving Meaningful Clinical Improvement on the PROMIS Sleep 8A (sleep disturbance [1]; 25 mg CBN): 46.7% | % experiencing MCID in PROMIS Sleep Disturbance 8A score (sleep disturbance [1]; 25 mg CBN): 46.7% | Estimated marginal percentage achieving meaningful clinical improvement on the PROMIS Sleep 8A (sleep disturbance [1]; 25 mg CBN): 47.1% (35.41%, 62.66%) | Parameter Estimate for PROMIS Sleep Disturbances 8a, Treatment (sleep disturbance [1]; 25 mg CBN): 0.14 | Estimated marginal mean, PROMIS Sleep Disturbance 8A (sleep disturbance [1]; 25 mg CBN, week 1): 21.6 | Estimated marginal mean, PROMIS Sleep Disturbance 8A (sleep disturbance [1]; 25 mg CBN, week 2): 20.6 | Estimated marginal mean, PROMIS Sleep Disturbance 8A (sleep disturbance [1]; 25 mg CBN, week 3): 21.3 | Estimated marginal mean, PROMIS Sleep Disturbance 8A (sleep disturbance [1]; 25 mg CBN, week 4): 20.9 | Relative Risk for meaningful clinical improvement on the PROMIS Sleep Disturbance 8A (sleep disturbance [1]; 50 mg CBN − placebo): 1.46 (0.72, 2.2) | Observed % Achieving Meaningful Clinical Improvement on the PROMIS Sleep 8A (sleep disturbance [1]; 50 mg CBN): 53.6% | % experiencing MCID in PROMIS Sleep Disturbance 8A score (sleep disturbance [1]; 50 mg CBN): 53.6% | Estimated marginal percentage achieving meaningful clinical improvement on the PROMIS Sleep 8A (sleep disturbance [1]; 50 mg CBN): 51.6% (38.93%, 68.48%) | Parameter Estimate for PROMIS Sleep Disturbances 8a, Treatment (sleep disturbance [1]; 50 mg CBN): 0.28 | Estimated marginal mean, PROMIS Sleep Disturbance 8A (sleep disturbance [1]; 50 mg CBN, week 1): 20.4 | Estimated marginal mean, PROMIS Sleep Disturbance 8A (sleep disturbance [1]; 50 mg CBN, week 2): 21 | Estimated marginal mean, PROMIS Sleep Disturbance 8A (sleep disturbance [1]; 50 mg CBN, week 3): 20.7 | Estimated marginal mean, PROMIS Sleep Disturbance 8A (sleep disturbance [1]; 50 mg CBN, week 4): 20.3 | Relative Risk for meaningful clinical improvement on the PROMIS Sleep Disturbance 8A (sleep disturbance [1]; 100 mg CBN − placebo): 1.39 (0.7, 2.08) | Observed % Achieving Meaningful Clinical Improvement on the PROMIS Sleep 8A (sleep disturbance [1]; 100 mg CBN): 50.0% | % experiencing MCID in PROMIS Sleep Disturbance 8A score (sleep disturbance [1]; 100 mg CBN): 50.0% | Estimated marginal percentage achieving meaningful clinical improvement on the PROMIS Sleep 8A (sleep disturbance [1]; 100 mg CBN): 49.1% (36.96%, 65.24%) | Parameter Estimate for PROMIS Sleep Disturbances 8a, Treatment (sleep disturbance [1]; 100 mg CBN): 0.59 | Estimated marginal mean, PROMIS Sleep Disturbance 8A (sleep disturbance [1]; 100 mg CBN, week 1): 20.99 | Estimated marginal mean, PROMIS Sleep Disturbance 8A (sleep disturbance [1]; 100 mg CBN, week 2): 21.77 | Estimated marginal mean, PROMIS Sleep Disturbance 8A (sleep disturbance [1]; 100 mg CBN, week 3): 20.84 | Estimated marginal mean, PROMIS Sleep Disturbance 8A (sleep disturbance [1]; 100 mg CBN, week 4): 20.9 | Relative Risk for meaningful clinical improvement on the PROMIS Sleep SF4A (sleep disturbance [2]; 25 mg CBN − placebo): 1.35 (0.66, 2.03) | Observed % Achieving Meaningful Clinical Improvement on the PROMIS Sleep SF4A (sleep disturbance [2]; 25 mg CBN): 47.83% | Estimated marginal percentage achieving meaningful clinical improvement on the PROMIS Sleep SF4A (sleep disturbance [2]; 25 mg CBN): 46.28% (34.73%, 61.7%) | Estimated marginal mean, PROMIS Sleep Disturbance SF4A (sleep disturbance [2]; 25 mg CBN, week 1): 11.0 | Estimated marginal mean, PROMIS Sleep Disturbance SF4A (sleep disturbance [2]; 25 mg CBN, week 2): 10.81 | Estimated marginal mean, PROMIS Sleep Disturbance SF4A (sleep disturbance [2]; 25 mg CBN, week 3): 11.1 | Estimated marginal mean, PROMIS Sleep Disturbance SF4A (sleep disturbance [2]; 25 mg CBN, week 4): 10.9 | Relative Risk for meaningful clinical improvement on the PROMIS Sleep SF4A (sleep disturbance [2]; 50 mg CBN − placebo): 1.59 (0.81, 2.37) | Observed % Achieving Meaningful Clinical Improvement on the PROMIS Sleep SF4A (sleep disturbance [2]; 50 mg CBN): 58.33% | Estimated marginal percentage achieving meaningful clinical improvement on the PROMIS Sleep SF4A (sleep disturbance [2]; 50 mg CBN): 54.76% (41.80%, 71.7%) | Estimated marginal mean, PROMIS Sleep Disturbance SF4A (sleep disturbance [2]; 50 mg CBN, week 1): 10.7 | Estimated marginal mean, PROMIS Sleep Disturbance SF4A (sleep disturbance [2]; 50 mg CBN, week 2): 10.9 | Estimated marginal mean, PROMIS Sleep Disturbance SF4A (sleep disturbance [2]; 50 mg CBN, week 3): 10.8 | Estimated marginal mean, PROMIS Sleep Disturbance SF4A (sleep disturbance [2]; 50 mg CBN, week 4): 10.3 | Relative Risk for meaningful clinical improvement on the PROMIS Sleep SF4A (sleep disturbance [2]; 100 mg CBN − placebo): 1.47 (0.75, 2.19) | Observed % Achieving Meaningful Clinical Improvement on the PROMIS Sleep SF4A (sleep disturbance [2]; 100 mg CBN): 53.19% | Estimated marginal percentage achieving meaningful clinical improvement on the PROMIS Sleep SF4A (sleep disturbance [2]; 100 mg CBN): 50.56% (38.37%, 66.6%) | Estimated marginal mean, PROMIS Sleep Disturbance SF4A (sleep disturbance [2]; 100 mg CBN, week 1): 10.8 | Estimated marginal mean, PROMIS Sleep Disturbance SF4A (sleep disturbance [2]; 100 mg CBN, week 2): 11.33 | Estimated marginal mean, PROMIS Sleep Disturbance SF4A (sleep disturbance [2]; 100 mg CBN, week 3): 10.8 | Estimated marginal mean, PROMIS Sleep Disturbance SF4A (sleep disturbance [2]; 100 mg CBN, week 4): 10.8 | Marginal mean (95% confidence interval), sleep disturbance PGIC (sleep disturbance [3]; 25 mg CBN): 3.81 | Odds Ratio (95% Confidence interval), sleep disturbance PGIC (sleep disturbance [3]; 25 mg CBN − placebo): 1.88 (0.98, 3.62) | Parameter estimate for PGIC in sleep disturbance (sleep disturbance [3]; 25 mg CBN): 0.63 | Marginal mean (95% confidence interval), sleep disturbance PGIC (sleep disturbance [3]; 50 mg CBN): 3.91 | Odds Ratio (95% Confidence interval), sleep disturbance PGIC (sleep disturbance [3]; 50 mg CBN − placebo): 2.35 (1.22, 4.51) | Parameter estimate for PGIC in sleep disturbance (sleep disturbance [3]; 50 mg CBN): 0.85 | Marginal mean (95% confidence interval), sleep disturbance PGIC (sleep disturbance [3]; 100 mg CBN): 3.91 | Odds Ratio (95% Confidence interval), sleep disturbance PGIC (sleep disturbance [3]; 100 mg CBN − placebo): 2.35 (1.24, 4.44) | Parameter estimate for PGIC in sleep disturbance (sleep disturbance [3]; 100 mg CBN): 0.85 | Average time to effect ([4]; 25 mg CBN softgel): 54.9 min | Average time to effect ([4]; 50 mg CBN softgel): 55.5 min | Average time to effect ([4]; 100 mg CBN softgel): 46.4 min | % of participants reporting any side effects ([5]; 25 mg CBN): 6.8% | % of participants reporting any side effects ([5]; 50 mg CBN): 12.9% | % of participants reporting any side effects ([5]; 100 mg CBN): 7.9%
